In the NIST ThermoML archive (doi:10.1016/j.jct.2018.07.031):

Assays:
[1] = xn = mol fraction of the nth substance listed; conditions: x1 = 0.333; for surface tension liquid-gas: Drop volume; for viscosity / electrical conductivity / speed of sound / mass density: 100 kPa, Liquid; for viscosity: Capillary tube (Ostwald / Ubbelohde) method; for electrical conductivity: Frequency=0.002 MHz, Alternating current cell with electrodes; for speed of sound: Frequency=3 MHz, Single path-length method; for mass density: Vibrating tube method
[2] = molar heat capacity at constant pressure; xn = mol fraction of the nth substance listed; conditions: 100 kPa, Liquid, DSC, x1 = 0.333
[3] = refractive index (Na D-line) (dimensionless); xn = mol fraction of the nth substance listed; conditions: 100 kPa, Liquid, Standard Abbe refractometry, x1 = 0.333

C[N+](C)(C)CCO.[Cl-] [choline chloride] + OCC(O)CO
Conditions | electrical conductivity, [1] [S/m] | mass density, [1] [kg/m3] | molar heat capacity at constant pressure, [2] [J/K/mol] | refractive index, [3] | speed of sound, [1] [m/s] | surface tension liquid-gas, [1] [mN/m] | viscosity, [1] [mPa·s]
278.15 K | 0.026 | 1207.05 | 211.5 | – | 2049.6 | 68.01 | 1511
280.65 K | 0.032 | 1205.6 | 212.5 | – | 2042.8 | 67.9 | 1211
283.15 K | 0.0406 | 1204.2 | 213.5 | 1.48809 | 2036.2 | 67.77 | 982.4
285.65 K | 0.0491 | 1202.8 | 214.5 | 1.4875 | 2029.9 | 67.65 | 801.5
288.15 K | 0.0587 | 1201.4 | 215 | 1.48698 | 2024 | 67.5 | 658.4
290.65 K | 0.0703 | 1200 | 216 | 1.48632 | 2018.2 | 67.34 | 543.7
293.15 K | 0.0839 | 1198.55 | 217 | 1.48574 | 2012.6 | 67.2 | 452.6
295.65 K | 0.0992 | 1197.15 | 217.5 | 1.48514 | 2006.9 | 67.1 | 378.5
298.15 K | 0.117 | 1195.75 | 218.5 | 1.48455 | 2001.3 | 66.95 | 319.7
300.65 K | 0.136 | 1194.3 | 219 | 1.48396 | 1995.8 | 66.81 | 271.4
303.15 K | 0.158 | 1192.9 | 220 | 1.48337 | 1990.2 | 66.7 | 232.1
305.65 K | 0.182 | 1191.5 | 221 | 1.48278 | 1984.7 | 66.57 | 199
308.15 K | 0.21 | 1190.15 | 221.5 | 1.48218 | 1979.2 | 66.43 | 171.6
310.65 K | 0.24 | 1188.75 | 222.5 | 1.48159 | 1973.8 | 66.31 | 149
313.15 K | 0.276 | 1187.4 | 223.5 | 1.48098 | 1968.3 | 66.18 | 130
315.65 K | 0.314 | 1186 | 224 | 1.4804 | 1962.8 | 66.05 | 113.8
318.15 K | 0.352 | 1184.65 | 225 | 1.4798 | 1957.4 | 65.93 | 100
320.65 K | 0.394 | 1183.25 | 226 | 1.47921 | 1951.8 | 65.74 | 88.43
323.15 K | 0.439 | 1181.9 | 227 | 1.4786 | 1946.3 | 65.62 | 78.39
325.65 K | 0.487 | 1180.5 | 228 | 1.47801 | 1940.7 | 65.48 | 69.46
328.15 K | 0.544 | 1179.1 | 228.5 | 1.47741 | 1935.2 | 65.38 | 62.06
330.65 K | 0.603 | 1177.7 | 229 | 1.47681 | 1929.6 | 65.23 | 55.63
333.15 K | 0.662 | 1176.35 | 230 | 1.47622 | 1924.1 | 65.1 | 50.05
335.65 K | 0.729 | 1174.95 | 231 | 1.47564 | 1918.5 | 64.97 | 45.19
338.15 K | 0.801 | 1173.55 | 232 | 1.47504 | 1912.9 | 64.84 | 40.94
